From patent publication US11370774B2, “Substituted benzofuran, benzopyrrole, benzothiophene, and structurally related complement inhibitors” (BioCryst Pharmaceuticals, Inc., priority 2018, dated 2022) come the findings set out here.

The target of this test is Factor D (Homo sapiens (Human), UniProt P00746). The test is described as follows: Factor D esterolytic assay (Z-Lys-SBzl substrate, DTNB, 405 nm). The format is biochemical. Particulars: Z-Lys-SBzl 1.29 mM, pH 7.5, 10% DMSO, tested a minimum of three times, read-out: Measured Ki (IC50) Value for Compounds: IC50. In a few lines: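 Human Factor D ([…]) with 1.29 mM Z-Lys-SBzl in 100 mM HEPES, 500 mM NaCl, pH 7.5, 10% DMSO; substrate added immediately or after room-temperature preincubation. Released thiol reacted with DTNB, rate followed at 405 nm for 600 sec, 690 nm background subtracted. IC50 from percent inhibition versus uninhibited rate, n≥3.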
Chain of Factor D (P00746 26-253): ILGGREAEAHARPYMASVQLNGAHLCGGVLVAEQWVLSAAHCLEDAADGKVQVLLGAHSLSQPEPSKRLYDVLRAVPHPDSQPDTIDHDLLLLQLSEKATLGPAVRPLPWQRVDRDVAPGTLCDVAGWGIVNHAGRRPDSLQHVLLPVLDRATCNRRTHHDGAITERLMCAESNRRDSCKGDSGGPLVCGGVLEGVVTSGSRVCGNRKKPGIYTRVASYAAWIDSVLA

As usually defined, the IC50 is the point on the concentration scale where inhibition reaches its midpoint. Consider `CNCc1cc2cc(COc3ccccc3CC(=O)O)cc(-c3cccc(CN)c3)c2o1` [Compound 138f, 2-(2-((7-(3-(aminomethyl)phenyl)-2-((methylamino)methyl)benzofuran-5-yl)methoxy)phenyl)acetic acid], for which the half-maximal inhibitory concentration (IC50) was under 1000 nM.
As for `CC(=O)Nc1ccc(CC(=O)O)c(OCc2cc(-c3cccc(CN)c3)c3oc(CO)cc3c2)c1` [Compound 421e, 2-(4-acetamido-2-((7-(3-(aminomethyl)phenyl)-2-(hydroxymethyl)benzofuran-5-yl)methoxy)phenyl)acetic acid], the figure is under 1000 nM; as for `NCc1cccc(-c2cc(COc3ccccc3CC(=O)O)cc3c2CCC3)c1` [Compound 177f, 2-(2-((7-(3-(aminomethyl)phenyl)-2,3-dihydro-1H-inden-5-yl)methoxy)phenyl)acetic acid], under 1000 nM.
As for `NCc1cccc(-c2cc(COc3cc(C(N)=O)ccc3CC(=O)O)cc3cc(CO)oc23)c1` [Compound 424d, 2-(2-((7-(3-(aminomethyl)phenyl)-2-(hydroxymethyl)benzofuran-5-yl)methoxy)-4-carbamoylphenyl)acetic acid], the figure is under 1000 nM; as for `C[C@H](N)c1cccc(-c2cc(COc3ccccc3CC(=O)O)cc3ccoc23)c1F` [Compound 66c, (S)-2-(2-((7-(3-(1-aminoethyl)-2-fluorophenyl)benzofuran-5-yl)methoxy)phenyl)acetic acid], under 1000 nM.
Consider `NCc1cccc(-c2cc(COc3ccccc3CC(=O)O)cc3sc(Cl)cc23)c1F` [Compound 337b, 2-(2-((4-(3-(aminomethyl)-2-fluorophenyl)-2-chlorobenzo[b]thiophen-6-yl)methoxy)phenyl)acetic acid], for which the IC50 is under 1000 nM.
Next, `Cc1ccc(CC(=O)O)c(OCc2cc(-c3cccc(CN)c3)c3occc3c2F)c1` [Compound 347b, 2-(2-((7-(3-(aminomethyl)phenyl)-4-fluorobenzofuran-5-yl)methoxy)-4-methylphenyl)acetic acid]: under 1000 nM; `CC(=O)c1ccc(CC(=O)O)c(OCc2cc(-c3cccc(CN)c3)c3occc3c2)c1` [Compound 262c, 2-(4-acetyl-2-((7-(3-(aminomethyl)phenyl)benzofuran-5-yl)methoxy)phenyl)acetic acid]: under 1000 nM.
For the compound `CCOc1ccc(CC(=O)O)c(OCc2cc(-c3cccc(CN)c3)c3occc3c2)c1` [Compound 265g, 2-(2-((7-(3-(aminomethyl)phenyl)benzofuran-5-yl)methoxy)-4-ethoxyphenyl)acetic acid], the IC50 was under 1000 nM.
For `NCc1cccc(-c2cc(C(=O)Nc3ccccc3CC(=O)O)cn3ccnc23)c1` [Compound 125c, 2-(2-(8-(3-(aminomethyl)phenyl)imidazo[1,2-a]pyridine-6-carboxamido)phenyl)acetic acid], the half-maximal inhibitory concentration (IC50) is over 10000 nM.
As for `CC(=O)c1ccc(CC(=O)O)c(OCc2cc(-c3ccnc(CN)c3F)c3occc3c2)c1` [Compound 505d, 2-(4-acetyl-2-((7-(2-(aminomethyl)-3-fluoropyridin-4-yl)benzofuran-5-yl)methoxy)phenyl)acetic acid], the figure is under 1000 nM; as for `Cc1ccc(CC(=O)O)c(OCc2cc(-c3ccnc(CN)c3)c3ccn(C(C)C)c3c2)c1` [Compound 354c, 2-(2-((4-(2-(aminomethyl)pyridin-4-yl)-1-isopropyl-1H-indol-6-yl)methoxy)-4-methylphenyl)acetic acid], under 1000 nM.
On to `NCc1cccc(-c2cc(COc3ccccc3CC(=O)O)cc3cc(CN4CCOCC4)oc23)c1` [Compound 139c, 2-(2-((7-(3-(aminomethyl)phenyl)-2-(morpholinomethyl)benzofuran-5-yl)methoxy)phenyl)acetic acid], for which the half-maximal inhibitory concentration (IC50) was under 1000 nM.
As for `NCc1cc(-c2cc(COc3ccccc3CC(=O)O)cc3c2ccn3CC2CC2)ccn1` [Compound 155c, 2-(2-((4-(2-(aminomethyl)pyridin-4-yl)-1-(cyclopropylmethyl)-1H-indol-6-yl)methoxy)phenyl)acetic acid], the figure is under 1000 nM; as for `NCc1cccc(-c2cc(CC(=O)N3[C@@H]4C[C@@H]4C[C@H]3C(=O)NCc3cccc(Cl)c3F)cc3ccoc23)c1` [Compound 273g, (1R,3S,5R)-2-(2-(7-(3-(aminomethyl)phenyl)benzofuran-5-yl)acetyl)-N-(3-chloro-2-fluorobenzyl)-2-azabicyclo[3.1.0]hexane-3-carboxamide], under 1000 nM; as for `NCc1cc(-c2cc(COc3cc(F)ccc3CC(=O)O)cc3cc(F)oc23)ccn1` [Compound 523b, 2-(2-((7-(2-(aminomethyl)pyridin-4-yl)-2-fluorobenzofuran-5-yl)methoxy)-4-fluorophenyl)acetic acid], under 1000 nM.
On to `NCc1cccc(-c2nc(C(=O)Nc3ccccc3CC(=O)O)cc3[nH]ccc23)c1` [Compound 83h, 2-(2-(4-(3-(aminomethyl)phenyl)-1H-pyrrolo[3,2-c]pyridine-6-carboxamido)phenyl)acetic acid], for which the IC50 was under 1000 nM.
Consider `CS(=O)(=O)n1ccc2c(-c3cccc(CN)c3F)cc(COc3ccccc3CC(=O)O)cc21` [Compound 198b, 2-(2-((4-(3-(aminomethyl)-2-fluorophenyl)-1-(methylsulfonyl)-1H-indol-6-yl)methoxy)phenyl)acetic acid], for which the half-inhibitory concentration (IC50) was under 1000 nM.
On to `NCc1cccc(-c2cc(COc3ccccc3CC(=O)O)cc3nn(CC4CC4)cc23)c1F` [Compound 164e, 2-(2-((4-(3-(aminomethyl)-2-fluorophenyl)-2-(cyclopropylmethyl)-2H-indazol-6-yl)methoxy)phenyl)acetic acid], for which the IC50 was under 1000 nM.
Turning to `COc1ccc(CC(=O)O)c(OCc2cc(-c3cccc(CN)c3F)c3ccn(C(C)C)c3c2)c1` [Compound 357b, 2-(2-((4-(3-(aminomethyl)-2-fluorophenyl)-1-isopropyl-1H-indol-6-yl)methoxy)-4-methoxyphenyl)acetic acid], the IC50 was under 1000 nM.
Turning to `CC(=O)c1cc2cc(COc3ccccc3CC(=O)O)cc(-c3cccc(CN)c3)c2o1` [Compound 252d, 2-(2-((2-acetyl-7-(3-(aminomethyl)phenyl)benzofuran-5-yl)methoxy)phenyl)acetic acid], the IC50 is under 1000 nM.
Take `COc1ccc(CC(=O)O)c(OCc2cc(-c3ccnc(CN)c3)c3occ(C(F)(F)F)c3c2)c1` [Compound 499b, 2-(2-((7-(2-(aminomethyl)pyridin-4-yl)-3-(trifluoromethyl)benzofuran-5-yl)methoxy)-4-methoxyphenyl)acetic acid]: the IC50 was under 1000 nM.
On to `COCc1cc2cc(COc3cc(C(N)=O)ccc3CC(=O)O)cc(-c3cccc(CN)c3F)c2o1` [Compound 439c, 2-(2-((7-(3-(aminomethyl)-2-fluorophenyl)-2-(methoxymethyl)benzofuran-5-yl)methoxy)-4-carbamoylphenyl)acetic acid], for which the concentration for half-maximal inhibition (IC50) was under 1000 nM.
As for `NCc1cccc(-c2nc(C(=O)Nc3ccccc3CC(=O)O)nc3ccsc23)c1` [Compound 31f, 2-(2-(4-(3-(aminomethyl)phenyl)thieno[3,2-d]pyrimidine-2-carboxamido)phenyl)acetic acid], the figure is under 1000 nM; as for `CC(=O)Nc1ccc(CC(=O)O)c(OCc2cc(-c3cccc(C(N)CF)c3)c3occc3c2)c1` (single isomer, unassigned; (+)) [Compound 434c, (+)-2-(4-acetamido-2-((7-(3-(1-amino-2-fluoroethyl)phenyl)benzofuran-5-yl)methoxy)phenyl)acetic acid], under 1000 nM; as for `NCc1cccc(-c2nc(C(=O)Nc3ccccc3CC(=O)O)c3ccc(CN4CCCC4)n3n2)c1` [Compound 46g, 2-(2-(2-(3-(aminomethyl)phenyl)-7-(pyrrolidin-1-ylmethyl)pyrrolo[2,1-f][1,2,4]triazine-4-carboxamido)phenyl)acetic acid], 1000 to 10000 nM.
Next, `N[C@H](c1cc(-c2cc(COc3ccccc3CC(=O)O)cc3ccoc23)ccn1)C(F)(F)F` [Compound 380e, (R)-2-(2-((7-(2-(1-amino-2,2,2-trifluoroethyl)pyridin-4-yl)benzofuran-5-yl)methoxy)phenyl)acetic acid]: over 10000 nM.
As to `NCc1cccc(-c2cc(NC(=O)[C@@H]3CCC[C@H]3C(=O)NCc3cccc(Cl)c3F)cc3ccoc23)c1` (relative stereo) [Compound 217e, (trans)-N1-(7-(3-(aminomethyl)phenyl)benzofuran-5-yl)-N2-(3-chloro-2-fluorobenzyl)cyclopentane-1,2-dicarboxamide], the IC50 was under 1000 nM.
On to `NCc1cccc(-c2cc(COc3ccccc3CC(=O)O)cc3[nH]ncc23)c1` [Compound 156b, 2-(2-((4-(3-(aminomethyl)phenyl)-1H-indazol-6-yl)methoxy)phenyl)acetic acid], for which the half-inhibitory concentration (IC50) was under 1000 nM.
Turning to `NCc1cccc(-c2cc(COc3ccccc3CC(=O)O)cc3cc(F)oc23)c1` [Compound 227e, 2-(2-((7-(3-(aminomethyl)phenyl)-2-fluorobenzofuran-5-yl)methoxy)phenyl)acetic acid], the IC50 was under 1000 nM.
Next, `NCc1cccc(-c2cc(COc3ccc4ccccc4c3CC(=O)O)cc3ccoc23)c1` [Compound 400e, 2-(2-((7-(3-(aminomethyl)phenyl)benzofuran-5-yl)methoxy)naphthalen-1-yl)acetic acid]: under 1000 nM; `NCc1cccc(-c2cc(COc3ccccc3CC(=O)O)cc3cc(C(F)(F)F)oc23)c1F` [Compound 235b, 2-(2-((7-(3-(aminomethyl)-2-fluorophenyl)-2-(trifluoromethyl)benzofuran-5-yl)methoxy)phenyl)acetic acid]: under 1000 nM.
Consider `NCc1cccc(-c2cc(COc3ccccc3CC(=O)O)cc3cc(-c4ccccc4)oc23)c1` [Compound 374f, 2-(2-((7-(3-(aminomethyl)phenyl)-2-phenylbenzofuran-5-yl)methoxy)phenyl)acetic acid], for which the half-maximal inhibitory concentration (IC50) is under 1000 nM.
